Laboratory results taken from patent US6740650B2, “Heterocyclic cytotoxic agents” (Rutgers, The State University of New Jersey, priority 2002, dated 2004).

Experiments:
[1] = system: KB3-1 (oral); assay: MTT-microtiter plate tetrazolinium cytotoxicity assay, KB3-1; type: cell-based
[2] = system: KBV-1 (mdr-1); assay: MTT-microtiter plate tetrazolinium cytotoxicity assay, KBV-1; type: cell-based
[3] = system: KBH1.0 + V (H033342r.); assay: MTT-microtiter plate tetrazolinium cytotoxicity assay, KBH1.0 + V; type: cell-based; details: continuous exposure 3-4 days
[4] = system: HELA (cervical); assay: MTT-microtiter plate tetrazolinium cytotoxicity assay, HELA; type: cell-based; details: continuous exposure 3-4 days
[5] = system: HCT116 (colon); assay: MTT-microtiter plate tetrazolinium cytotoxicity assay, HCT116; type: cell-based
[6] = system: ZR-75-1 (breast); assay: MTT-microtiter plate tetrazolinium cytotoxicity assay, ZR-75-1; type: cell-based
[7] = target: T1, human topoisomerase I (Homo sapiens, UniProt P11387); assay: Test A. Topoisomerase I-mediated DNA cleavage assay; type: biochemical; details: concentration relative to 2,3-dimethoxy-8,9-methylenedioxybenzo[i]phenanthridine (=1.0) producing same cleavage (approx. 10% DNA fragmentation); 30 min, 37° C.
T1 construct: unnamed fusion partner (recombinant fusion protein, T7 expression system); made in house; host or cells: E. coli
T1 sequence (P11387 1-765): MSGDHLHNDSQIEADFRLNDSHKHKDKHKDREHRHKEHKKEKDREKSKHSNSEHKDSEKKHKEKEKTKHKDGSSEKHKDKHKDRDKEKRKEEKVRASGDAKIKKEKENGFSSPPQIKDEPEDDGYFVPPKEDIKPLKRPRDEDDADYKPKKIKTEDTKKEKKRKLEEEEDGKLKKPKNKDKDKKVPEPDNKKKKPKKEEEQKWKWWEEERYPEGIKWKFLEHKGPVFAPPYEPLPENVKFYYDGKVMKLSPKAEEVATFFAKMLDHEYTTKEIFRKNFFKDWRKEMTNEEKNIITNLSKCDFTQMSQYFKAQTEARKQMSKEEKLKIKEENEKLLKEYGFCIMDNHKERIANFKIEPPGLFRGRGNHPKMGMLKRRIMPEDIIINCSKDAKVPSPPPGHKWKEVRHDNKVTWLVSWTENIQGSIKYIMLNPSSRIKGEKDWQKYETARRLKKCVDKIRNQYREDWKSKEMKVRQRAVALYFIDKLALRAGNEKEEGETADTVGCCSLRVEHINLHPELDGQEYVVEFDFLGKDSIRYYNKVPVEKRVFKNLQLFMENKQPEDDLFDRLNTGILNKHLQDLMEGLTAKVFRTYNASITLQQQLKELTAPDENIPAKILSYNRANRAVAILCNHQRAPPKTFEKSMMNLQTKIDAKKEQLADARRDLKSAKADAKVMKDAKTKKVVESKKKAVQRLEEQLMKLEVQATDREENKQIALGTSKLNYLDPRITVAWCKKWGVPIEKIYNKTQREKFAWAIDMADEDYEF
Text: Test A. Topoisomerase I-mediated DNA Cleavage Assay
Human topoisomerase I was expressed in E. Coli and isolated as a recombinant fusion protein using a T7 expression system as described previously (Makhey, D. et al., Bioorg. Med. Chem., 2000, 8, 1-11). DNA topoisomerase I was purified from calf thymus gland as reported previously (Maniatis, T., et al., J. Molecular Cloning, a Laboratory Manual, Cold Spring Harbor Laboratory, Cold Spring Harbor, N.Y., 149-185). Plasmid YepG was also purified by the alkali lysis method followed by phenol deproteination and CsCl/ethidium isopycnic centrifugation method as described (Maniatis, T.; Fritsch, E. F.; Sambrook, J. Molecular Cloning, a Laboratory Manual; Cold Spring Harbor Laboratory: Cold Spring Harbor, N.Y. 1982; pp 149-185).^102 The end-labeling of the plasmid was accomplished by digestion with a restriction enzyme followed by end-filling with Klenow polymerase as previously described (Liu, L. F.; Rowe, T. C.; Yang, L.; Tewey, K. M.; Chen, G. L. “Cleavage of DNA by mammalian topoisomerase II,” J Biol. Chem. 1983, 258, 15365).^103 Cleavage assays were performed as previously reported (B. Gatto et al. Cancer Res., 1996, 56, 2795-2800).^13 The drug and the DNA in presence of topoisomerase I was incubated for 30 minutes at 37° C. After development of the gels, typically 24-hour exposure was used to obtain autoradiograms outlining the extent of DNA fragmentation. Topoisomerase I-mediated DNA cleavage values are reported as REC, Relative Effective Concentration, i.e. concentrations relative to 2,3-dimethoxy-8,9-methylenedioxybenzo[i]phenanthridine, whose value is arbitrarily assumed as 1.0, that are able to produce the same cleavage on the plasmid DNA in the presence of human topoisomerase I. Relative potency was based upon the relative amount of drug needed to induce approximately 10% DNA fragmentation. Assays were performed under the direction of Dr. L. F. Liu, Department of Pharmacology, The University of Medicine and Dentistry of New Jersey, Robert Wood Johnson Medical School, Piscataway, N.J. Data from Test A for representative compounds of the invention is shown in Table 1.

[8] = system: human lymphoblast RPMI 8402; assay: MTT-microtiter plate tetrazolinium cytotoxicity assay, RPMI 8402; type: cell-based; details: continuous exposure 3-4 days
Method: (§1) Test B. Inhibition of Cell Growth: MTT-microtiter Plate Tetrazolinium Cytotoxicity Assay (RPMI 8402, CPT-K5, U937, U937/CR Cells)
(§2) The cytotoxicity was determined using the MTT-microtiter plate tetrazolinium cytotoxicity assay (MTA) (See Chen A. Y. et al. Cancer Res. 1993, 53, 1332; Mosmann, T. J., J. Immunol. Methods 1983, 65, 55; and Carmichael, J. et al. Cancer Res. 1987, 47, 936). The human lymphoblast RPMI 8402 and its camptothecin-resistant variant cell line, CPT-K5 were provided by Dr. Toshiwo Andoh (Anchi Cancer Research Institute, Nagoya, Japan) (see Andoh, T.; Okada, K. “Drug resistance mechanisms of topoisomerase I drugs,” Adv. in Pharmacology 1994, 29B, 93). Human U-937 myeloid leukemia cells and U-937/CR cells were described by Rubin et al., J. Biol. Chem., 269, 2433-2439 (1994). The cytotoxicity assay was performed by using 96-well microtiter plates using 2000 cells/well, in […] of growth medium. Cells were grown in suspension at 37° C. in 5% CO2 and maintained by regular passage in RPMI medium supplemented with 10% heat-inactivated fetal bovine serum, L-glutamine (2 mM), penicillin (100U/mL), and streptomycin (0.1 mg/mL). For determination of IC50, cells were exposed continuously for 3-4 days to varying concentrations of drug, and MTT assays were performed at the end of the fourth day. […] All assays were performed at least twice in 6 replicate wells. All assays were performed under the direction of Dr. L. F. Liu, Department of Pharmacology, The University of Medicine and Dentistry of New Jersey, Robert Wood Johnson Medical School, Piscataway, N.J. Representative data is shown in Tables 2 and 3.

[9] = system: CPT-K5 (camptothecin-resistant variant of RPMI 8402); assay: MTT-microtiter plate tetrazolinium cytotoxicity assay, CPT-K5; type: cell-based; details: Homo sapiens, continuous exposure 3-4 days
Method: as §1, §2

[10] = system: Human U-937 myeloid leukemia cells; assay: MTT-microtiter plate tetrazolinium cytotoxicity assay, U937; type: cell-based; details: continuous exposure 3-4 days
Method: as §1, §2

[11] = system: U-937/CR cells; assay: MTT-microtiter plate tetrazolinium cytotoxicity assay, U937/CR; type: cell-based; details: Homo sapiens, continuous exposure 3-4 days
Method: as §1, §2

[12] = Homo sapiens, KB 3-1, continuous exposure 3-4 days
[13] = Homo sapiens, KB-V1, continuous exposure 3-4 days
[14] = Homo sapiens, HCT-116, continuous exposure 3-4 days
[15] = Homo sapiens, ZR-75-1, continuous exposure 3-4 days

SMILES	IC50 ([1]; continuous exposure 3-4 days) [µM]	IC50 ([2]; continuous exposure 3-4 days) [µM]	IC50 [3] [µM]	IC50 [4] [µM]	IC50 ([5]; continuous exposure 3-4 days) [µM]	IC50 ([6]; continuous exposure 3-4 days) [µM]	Topoisomerase I-mediated DNA cleavage (REC, Relative Effective Concentration) [7]	IC50 [8] [µM]	IC50 [9] [µM]	IC50 [10] [µM]	IC50 [11] [µM]	melting point [°C]	IC50 [1, 12] [µM]	IC50 [2, 13] [µM]	IC50 ([4]; Homo sapiens, HeLa) [µM]	IC50 [5, 14] [µM]	IC50 [6, 15] [µM]
CCOc1ccc(-c2nc3ccc(-c4nc5ccc(N6CCN(C)CC6)cc5[nH]4)cc3[nH]2)cc1 [HO33342]	0.25	3	> 10	0.6	0.22	0.06											
COc1ccc2nnc3c4cc(OC)c(OC)cc4ccc3c2c1 [Compound 61, 2,3,9-Trimethoxydibenzo[c,h]cinnoline]							10	4	31	3	6	215 to 217					
COc1cc2ccc3c4ccccc4nnc3c2cc1OC [Compound 6, 2,3-Dimethoxy-dibenzo[c,h]cinnoline]			5				5	3	10	3	3		6	4	6	3.2	4
CC[C@@]1(O)C(=O)OCc2c1cc1n(c2=O)Cc2cc3ccccc3nc2-1 [CPT]	0.006	0.006	0.007	0.004	0.003	0.004											
COc1ccc2c(ccc3c4cc5c(cc4nnc23)OCO5)c1 [Compound 43, 2-Methoxy-8,9-methylenedioxydibenzo[c,h]cinnoline]								> 100	52	38	30	258 to 260					
COc1cc2ccc3c4cc5c(cc4nnc3c2cc1OC)OCO5 [Compound 14, 2,3-Dimethoxy-8,9-methylenedioxy-dibenzo[c,h]cinnoline]			0.06				0.01	0.06	6	0.06	3		0.07	0.08	0.05	0.035	0.04
COc1cc2nnc3c4cc(OC)c(OC)cc4ccc3c2cc1O [Compound 34, 9-Hydroxy-2,3,8-trimethoxydibenzo[c,h]cinnoline]								> 100	> 100	> 100	> 100						
COc1cc2ccc3c4cc(OCc5ccccc5)c(OC)cc4nnc3c2cc1OC [Compound 42, 9-Benzyloxy-2,3,8-trimethoxydibenzo[c,h]cinnoline]								38	61	> 100	40	244 to 246					
COc1ccc2ccc3c4cc5c(cc4nnc3c2c1)OCO5 [Compound 44, 3-Methoxy-8,9-methylenedioxydibenzo[c,h]cinnoline]								0.5	1.3	43	0.9	259 to 261					
COc1ccc2c(c1)nnc1c3cc(OC)c(OC)cc3ccc21 [Compound 60, 2,3,8-Trimethoxydibenzo[c,h]cinnoline]							2	2	4	1.9	2.5	244 to 246					
COc1cc2ccc3c4cc(OC)c(OC)cc4nnc3c2cc1OC [Compound 19, 2,3,8,9-Tetramethoxy-dibenzo[c,h]cinnoline]							>100	10	> 10	10	20						
CC[C@]1(O)C[C@@H]2CN(CCc3c([nH]c4ccccc34)[C@@](C(=O)OC)(c3cc4c(cc3OC)N(C)[C@H]3[C@@](O)(C(=O)OC)[C@H](OC(C)=O)[C@]5(CC)C=CCN6CC[C@]43[C@@H]65)C2)C1 [VBS, Vinblastine]			0.0022										0.003	0.4	0.002	0.003	0.003
